In brackets after ≈: the same amount, converted by molar mass. Like-named read-outs stand apart in the source and are kept apart here.
Columns and labels:
mouse = conditions: oral; cited from earlier work
[1] = test system: Cryptococcus neoformans A. 34144; assay: In vitro antifungal activity, microbroth dilution MIC; assay type: cell-based; conditions: Cryptococcus neoformans
How it was run: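 Broth microdilution adapted from NCCLS M27, in RPMI-1640 with 0.165 M MOPS, pH 7.0. Yeast or mould inoculum at 2×10^3 CFU/ml was mixed 1:1 with DMSO-derived compound solutions (200 to 0.10 μg/ml before mixing) and incubated at 35 °C for 4 to 48 h. MIC was the concentration showing no growth.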

[2] = A.34144, RPMI-1640, 35° C., 4 to 48 hours, no growth observed, read-out: Minimal inhibitory concentration(MIC), Cry. neoformans A. 34144
[3] = A.34144, RPMI-1640, 35° C., no growth observed, read-out: Minimal inhibitory concentration (MIC), Cry. neoformans A. 34144
[4] = Cry. neoformans A. 34144, RPMI-1640, 35° C., 4 to 48 hours, read-out: Minimal inhibitory concentration (MIC)

Row | Structure (SMILES) | LD50 (mouse) | MIC [1, 2] | MIC [1, 3] | MIC [1, 4]
1 | CCC(C)n1ncn(-c2ccc(N3CCN(c4ccc(OCC5COC(Cn6cncn6)(c6ccc(Cl)cc6Cl)O5)cc4)CC3)cc2)c1=O (stereo not shown) [itraconazole, reference compound] | 320 mg/kg | 0.39 µg/mL (≈ 0.553 µM) | 0.39 µg/mL (≈ 0.553 µM) | 0.39 µg/mL (≈ 0.553 µM)
2 | OC(Cn1cncn1)(Cn1cncn1)c1ccc(F)cc1F [fluconazole, reference compound] |  | 12.5 µg/mL (≈ 40.8 µM) | 12.5 µg/mL (≈ 40.8 µM) | 12.5 µg/mL (≈ 40.8 µM)

— patent US6376497B1, “Antifungal azole derivatives having a fluorinated vinyl group and process for preparing same” (Korea Research Institute of Chemical Technology, priority 1999, dated 2002)
